Article PMC3679734 (BMC Research Notes, 2013)

Columns and labels:
human DAT [1] = target: T1, human DAT (Homo sapiens, UniProt Q01959); assay: Inhibition of DA uptake; assay type: cell-based
T1 construct: expressed in transfected cells; host or cells: HEK-293 cells (Invitrogen, Zug, Switzerland)
Description: The potencies of the drugs to inhibit the DAT were evaluated as previously described in HEK-293 cells (Invitrogen, Zug, Switzerland) stably transfected with the human DAT [8].

human DAT [2] = target: T1, human DAT; assay: Inhibition of methamphetamine-induced DA release; assay type: cell-based; details: HEK-293 cells expressing human DAT preloaded with 3H-DA; release induced with 10 μM methamphetamine, 15 min; means of 3–4 independent experiments and 95% CI
Description: We performed DA transporter mediated release experiments as previously published with slight modification. In brief, HEK-293 cells expressing the human DAT as stated above were cultured in 48 well-plates. Cells were filled with ^3H-DA, washed, and incubated with 250 μL buffer containing the drug alone or in combinations. […] DA release was stopped after 15 min by removing the release buffer from the cells. To quantify the DA release we determined the radioactivity in the cells after another wash step. The residual radioactivity in the cells after methamphetamine alone defined 100% DA release.

human DAT [3] = target: T1, human DAT; design: method as in PMID 22897747; details: read-out: DA release potency (EC50); HEK-293 cells expressing human DAT; 95% CI 0.9 μM-[…]; as shown previously ref 25; cited from earlier work

T1 sequence (Q01959 whole entry): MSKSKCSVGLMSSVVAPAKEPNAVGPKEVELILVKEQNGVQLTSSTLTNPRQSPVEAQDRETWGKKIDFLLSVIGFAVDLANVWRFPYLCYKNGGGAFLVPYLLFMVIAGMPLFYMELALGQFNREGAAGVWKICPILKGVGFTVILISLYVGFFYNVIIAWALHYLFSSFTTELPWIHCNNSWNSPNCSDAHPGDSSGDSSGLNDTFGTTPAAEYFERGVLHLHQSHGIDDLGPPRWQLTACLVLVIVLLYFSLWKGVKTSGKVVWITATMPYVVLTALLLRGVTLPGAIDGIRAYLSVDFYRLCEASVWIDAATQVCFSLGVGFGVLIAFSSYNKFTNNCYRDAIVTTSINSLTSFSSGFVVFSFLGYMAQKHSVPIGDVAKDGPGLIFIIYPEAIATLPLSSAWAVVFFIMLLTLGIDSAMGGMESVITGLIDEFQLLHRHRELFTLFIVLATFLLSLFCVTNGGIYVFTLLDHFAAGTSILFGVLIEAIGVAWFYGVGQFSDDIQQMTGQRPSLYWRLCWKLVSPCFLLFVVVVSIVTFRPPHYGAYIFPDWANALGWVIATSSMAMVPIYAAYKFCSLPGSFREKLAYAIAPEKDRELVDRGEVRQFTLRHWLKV

SMILES	IC50 (human DAT [1]; HEK-293 cells stably transfected with the human DAT, means of 3–4 independent experiments and 95% CI, read-out: DA uptake IC50 (95% CI))	IC50 (human DAT [2])	IC50 (human DAT [1])	EC50 (human DAT [3])
CCCC(C(=O)c1ccc2c(c1)OCO2)N1CCCC1 (stereo not shown) [MDPV, 3,4-methylenedioxypyrovalerone]	31 nM	280 nM		
CN[C@@H](C)Cc1ccccc1 [Methamphetamine, d-methamphetamine]			1050 nM	1560 nM
